According to patent US10434143B2, “Method of treating anemia caused by ribavirin treatment of hepatitis C using erythropoietin alpha” (priority 2001, dated 2019):
Several values for one entry are separate records, joined by “and”; a condition that tells them apart may be missing. Identical values can stand only once.

Assays:
[1] = format: in vivo, human
Experimental: In an open-label, prospective pilot study, 56 subjects with chronic HCV infection were treated with both RBV and IFN-α. Eighteen subjects with anemia (hemoglobin 10 g/dl or […]) and reduced exercise tolerance following IFN-α/RBV initiation were treated with Epoetin alpha (up to 40,000 units per week subcutaneously). […] At the time of epoetin alpha initiation, the mean hemoglobin level declined 25.4% (to 10.6 g/dL) in the group receiving this treatment. […] Two thirds of subjects receiving epoetin alpha reported improved symptoms. […] Fifty-six chronically HCV-infected (≥90 days) subjects who were treated with IFN-α (3 million units TIW) and RBV (1000 mg/d for subjects <75 kg or 1200 mg/d for subjects ≥75 kg) were entered into an open-label, pilot, prospective study at several centers. […] RBV doses were adjusted by treating physicians as clinically indicated throughout the study. Following INF-α/RBV initiation, subjects with new-onset anemia (hemoglobin ≤10 g/dL or ≥2 g/dL decrease in hemoglobin) or a decrease in hemoglobin accompanied by decreased exercise tolerance (providers' impressions) received epoetin alpha (up to 40,000 units per week, subcutaneously). […] After initiation of epoetin alpha therapy, subjects were evaluated at a 2-week interval for 8 weeks and every 4 weeks thereafter for a maximum of 40 weeks. At each visit, laboratory safety parameters were obtained and, for most subjects, health-care providers recorded whether improvement had occurred in symptoms that typically occur as a side-effect of anemia or after therapy with IFN-α/RBV (e.g., flu-like symptoms, fatigue, dyspnea). […] In addition, clinical benefit of epoetin alpha therapy was evaluated by comparing the percent decline in hemoglobin levels from baseline to initiation of epoetin alpha with the percent recovery in these levels by the last visit. Fisher's exact test or the t-test was used to evaluate the significance of differences between groups with respect to demographic characteristics.

[2] = Erythropoietin 40,000 units weekly for ribavirin-induced anemia; format: in vivo, human
Experimental: A study of interferon alone and interferon plus ribavirin for hepatitis C in HIV-infected patients was performed. Ten patients received interferon alone and 11 received the combination treatment of interferon alpha and ribavirin. Median liver biopsy fibrosis score for both groups was 2.1. In the interferon alone group, at 3 months, there was no change in HCV RNA, CD4 dropped from a median of 190 to 186 cells/ml and HIV RNA dropped from a median of 1500 copies per ml to less than 400. At the same time point, 3 months, in the combination group, the HCV RNA dropped from 3.2 million to less than about 600 copies/ml. […] This was treated with erythropoietin 40,000 units weekly when the hemoglobin declined to 10 g/dl. […] This was the first report of this treatment in patients with HIV infection as well as hepatitis C. […] This was done in both HIV seronegative individuals and HIV seropositive individuals.

[3] = format: in vivo, human; remark: listed apart in the source
Experimental: Once-weekly recombinant human erythropoietin (epoetin alpha) facilitates optimal ribavirin (RBV) dosing in Hepatitis C virus (HCV)-infected patients receiving Interferon-α-2b (IFN)/RBV combination therapy. RBV dose reduction or discontinuation has been the standard approach to treating hemoglobin (Hb) decreases resulting from IFN/RBV therapy in HCV-infected patients. […] An open-label, randomized, multicenter study was conducted to assess the efficacy and tolerability of once-weekly (QW) epoetin alpha therapy for hemoglobin decreases associated with IFN/RBV therapy and to evaluate the impact of epoetin alpha therapy on RBV dosing. HCV-infected patients who developed hemoglobin levels ≤12 g/dL during the first 24 weeks of combination IFN/RBV therapy (n=60) were randomly assigned to treatment with epoetin alpha (40000 units) subcutaneously once weekly for up to 36 weeks or standard of care (SOC). The primary and secondary efficacy end points were changes from baseline (at Week 16) in hemoglobin level and RBV dose, respectively.

[4] = system: hepatitis C virus; details: with interferon, licensing trials, cited from earlier work
[5] = system: hepatitis C virus; experiment: Study of interferon alone and interferon plus ribavirin for hepatitis C in HIV-infected patients; format: in vivo, human; details: interferon alone group, 3 months, 10 patients
Experimental: A study of interferon alone and interferon plus ribavirin for hepatitis C in HIV-infected patients was performed. Ten patients received interferon alone and 11 received the combination treatment of interferon alpha and ribavirin. Median liver biopsy fibrosis score for both groups was 2.1. In the interferon alone group, at 3 months, there was no change in HCV RNA, CD4 dropped from a median of 190 to 186 cells/ml and HIV RNA dropped from a median of 1500 copies per ml to less than 400. At the same time point, 3 months, in the combination group, the HCV RNA dropped from 3.2 million to less than about 600 copies/ml. […] The main adverse event was anemia which occurred in 5/21(23.8%). This was treated with erythropoietin 40,000 units weekly when the hemoglobin declined to 10 g/dl. […] This was the first report of this treatment in patients with HIV infection as well as hepatitis C.

epoetin alpha: recombinant human erythropoietin (r-HuEPO, Epoetin alpha)
mean hemoglobin level at the last study visit ([1]; epoetin alpha up to 40,000 units per week s.c., N=18, mean follow-up 25.3 weeks): 12.7 g/dL and 12.7 ± 1.7 g/dL | Dyspnea (%) ([1]; human, in vivo): 80.0% | Dyspnea, median duration (wks) ([1]; human, in vivo): 6.6 wks | Fatigue (%) ([1]; human, in vivo): 73.3% | Fatigue, median duration (wks) ([1]; human, in vivo): 8.2 wks | Flu-like symptoms ([1]; human, in vivo): 46.7 | Flu-like symptoms, median duration (wks) ([1]; human, in vivo): 2.7 wks | recovery in mean hemoglobin level after initiation of epoetin alpha ([1]; percent recovery by the last visit): 65.5% and 65.5±56.3% | hemoglobin after erythropoietin treatment ([2]; begun when hemoglobin declined to 10 g/dl, after a median of 4 weeks, HCV/HIV patients): 12.7 g/dL | quality of life ([2]; hemoglobin 11 gr/dl or less, HIV seronegative and seropositive): substantial increase in their quality of life | mean hemoglobin level at last available assessment ([3]; P<0.05 vs SOC): 13.8 g/dL | mean change in RBV dose at last available assessment ([3]; baseline 998 mg/day, P<0.05 vs SOC): -25 mg/day | mean change from baseline hemoglobin level at last available assessment ([3]; epoetin alpha 40000 units s.c. once weekly, baseline 11.0 g/dL, P<0.05 vs SOC): +2.7 g/dL | tolerability ([3]; human, in vivo): well tolerated | patients treated with RBV doses greater than 10.6 mg/kg per day ([3]; last available assessment, P<0.01 vs SOC): 77%

NC(=O)c1ncn([C@@H]2O[C@H](CO)[C@@H](O)[C@H]2O)n1 [ribavirin]
sustained virologic response rate ([4]; at least 10.6 mg/kg ribavirin): over 40% | SVR (response) rate ([4]; less than 10.6 mg/kg ribavirin): 28%

IFN-α
change in HCV RNA [5]: no change
